Laboratory results from PubChem BioAssay (NCI).
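Growth conditions: 96-well plates. Treatment: test compound, 48 hours, 5 concentrations. Analysis: linear interpolation between bracketing concentrations; unreached endpoints set to highest concentration. Here, GI50 denotes the concentration required for 50% inhibition of growth. TGI denotes the concentration required for complete inhibition of growth.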

Experiments:
Assay in all cases: growth of human tumour cells (NCI), 48 h
OVCAR-5 ovarian = system: OVCAR-5 ovarian
KM12 colon = system: KM12 colon
HS 578T breast = system: HS 578T breast
NCI-H23 lung = system: NCI-H23 lung
HOP-62 NSCLC = system: HOP-62 NSCLC
UACC-62 melanoma = system: UACC-62 melanoma
PC-3 prostate = system: PC-3 prostate
DU-145 prostate = system: DU-145 prostate
HCT-116 colon = system: HCT-116 colon
SR leukemia = system: SR leukemia

Compound	TGI (OVCAR-5 ovarian)	GI50 (KM12 colon)	TGI (KM12 colon)	GI50 (HS 578T breast)	TGI (HS 578T breast)	GI50 (NCI-H23 lung)	TGI (NCI-H23 lung)	GI50 (HOP-62 NSCLC)	TGI (HOP-62 NSCLC)	GI50 (UACC-62 melanoma)	TGI (UACC-62 melanoma)	GI50 (PC-3 prostate)	TGI (PC-3 prostate)	GI50 (DU-145 prostate)	TGI (DU-145 prostate)	GI50 (HCT-116 colon)	TGI (HCT-116 colon)	TGI (SR leukemia)	GI50 (OVCAR-5 ovarian)	GI50 (SR leukemia)
NC(=O)c1cc(Cl)ccc1NC(=O)/C=C/c1ccccc1	> 58.7 µM	2.19 µM	> 100 µM	3.17 µM	> 24.5 µM	5.62 µM	> 100 µM	7.79 µM	> 41.6 µM	2.18 µM	> 100 µM	3.2 µM	> 100 µM	3.3 µM	> 24.4 µM	2.66 µM	> 100 µM	–	–	–
[N-]=[N+]=C1C(=O)NN=C1c1ccccc1	> 100 µM	–	> 100 µM	–	–	–	> 100 µM	–	–	–	–	–	–	–	–	–	> 100 µM	> 100 µM	–	–
CC1=CC(C)(C)N=C2SC(c3ccc(N)cc3)=NN12	> 100 µM	–	> 100 µM	–	–	–	> 100 µM	–	> 100 µM	–	> 100 µM	–	–	–	–	–	> 100 µM	> 72.1 µM	–	–
CC1=[N+]([O-])c2ccccc2C(=O)C1=O	> 100 µM	–	> 100 µM	–	–	–	> 100 µM	–	> 100 µM	–	> 100 µM	–	–	–	–	–	> 100 µM	–	–	–
COC(=O)C12CC3CC(CC(C(=O)O)(C3)C1)C2	> 100 µM	–	> 100 µM	–	–	–	> 100 µM	–	> 100 µM	–	> 100 µM	–	–	–	–	–	> 100 µM	> 100 µM	–	–
O=C(CCc1nc(=S)[nH][nH]1)Nc1ccccc1Cl	> 100 µM	–	> 100 µM	–	–	–	> 100 µM	–	> 100 µM	–	> 100 µM	–	–	–	–	–	> 100 µM	> 100 µM	–	–
CCCC1=C(CC)C(C(=O)Nc2c(C)cccc2C)=NC(S)N1 (stereo not drawn)	> 100 µM	–	> 100 µM	–	–	–	> 100 µM	–	> 100 µM	–	> 100 µM	–	–	–	–	–	> 100 µM	> 100 µM	–	–
CNC(=S)/N=C(\N)N(C)C	–	–	> 100 µM	–	–	–	> 10 µM	–	> 100 µM	–	> 100 µM	–	–	–	–	–	> 100 µM	> 100 µM	–	–
COc1cc2c3c(n(CCCN)c(=O)c2cc1OC)-c1ccc(C#N)cc1C3=O	33.2 µM	4.88 µM	> 100 µM	18 µM	41.5 µM	9.02 µM	25.6 µM	4.01 µM	19.1 µM	17 µM	32.2 µM	15 µM	36.5 µM	12.3 µM	25.5 µM	15.8 µM	32.3 µM	–	18 µM	–
O=C(c1cccc2ccccc12)N1CCC(C2CCN(C(=O)c3cccc4ccccc34)CC2)CC1	> 100 µM	–	> 100 µM	–	–	–	> 100 µM	–	> 100 µM	–	> 100 µM	–	–	–	–	–	> 100 µM	> 100 µM	–	–
c1ccc(C2N3CCCCC3[C@@H]3c4[nH]c5ccccc5c4CCN23)nc1 (stereo partly drawn)	> 100 µM	–	–	–	–	–	> 100 µM	–	> 100 µM	–	> 100 µM	–	–	–	–	–	> 100 µM	–	–	–
Nc1ccccc1/C(O)=C1/CCOC1=O	> 100 µM	–	> 100 µM	–	–	–	> 100 µM	–	> 100 µM	–	> 100 µM	–	–	–	–	–	> 100 µM	> 100 µM	–	–
Nc1ccccc1C#C/C=C\C#Cc1ccccc1N	40.7 µM	3.26 µM	27.6 µM	–	–	18.6 µM	62.9 µM	12.1 µM	32.3 µM	11.4 µM	27.5 µM	7.39 µM	29.1 µM	26.8 µM	> 100 µM	4.15 µM	19.1 µM	–	10.9 µM	–
O=C1C2C3C=C4c5ccccc5N(c5ccccc5)C4(C2C(=O)N1c1ccc([N+](=O)[O-])cc1)[C@H]1C(=O)N(c2ccc([N+](=O)[O-])cc2)C(=O)[C@@H]31 (stereo partly drawn)	> 100 µM	–	> 100 µM	–	–	–	> 100 µM	–	> 100 µM	–	> 100 µM	–	–	–	–	–	> 100 µM	–	–	–
COc1ccc2c3c([nH]c2c1[N+](=O)[O-])C(C)N(C)CC3 (stereo not drawn)	> 100 µM	–	> 100 µM	–	–	–	> 100 µM	–	> 100 µM	–	> 100 µM	–	–	–	–	–	> 100 µM	–	–	–
CCOC(=O)CCC(=O)C1c2cccc(O)c2C(=O)c2c(O)cc(C)cc21 (stereo not drawn)	1.67 µM	–	0.563 µM	–	–	–	2.34 µM	–	2.21 µM	–	1.48 µM	–	–	–	–	–	1.88 µM	4.25 µM	–	–
CCCN(CCC)C(=O)c1c([N+](=O)[O-])cc(C(F)(F)F)cc1[N+](=O)[O-]	> 100 µM	–	> 100 µM	–	–	–	73.3 µM	–	> 100 µM	–	50.1 µM	–	–	–	–	–	87.4 µM	> 100 µM	–	–
Cc1[nH]c(=O)nc2[nH][nH]c(=O)c12	> 100 µM	–	> 100 µM	–	–	–	> 100 µM	–	> 100 µM	–	> 100 µM	–	–	–	–	–	> 100 µM	> 100 µM	–	–
CN(C)CCC1(C2=CCCC2)CC/C(=C\c2ccc(Cl)cc2)C1=O (stereo not drawn)	25.7 µM	–	23.6 µM	–	–	–	29.3 µM	–	32.7 µM	–	9.05 µM	–	–	–	–	–	22.3 µM	7.42 µM	–	–
COC(=O)[C@@]12C(=O)C=CC(=O)C1C1C(=CC2C)OC2OC3(CCCCC3)OC21 (stereo partly drawn)	27.8 µM	–	36.4 µM	–	–	–	39.9 µM	–	35.8 µM	–	29 µM	–	–	–	–	–	29.8 µM	–	–	–
Cn1cc(C2(C)CC(C)(C)c3c2n(C)c2ccccc32)c2ccccc21 (stereo not drawn)	–	–	> 100 µM	–	–	–	> 100 µM	–	> 100 µM	–	> 100 µM	–	–	–	–	–	–	–	–	–
CCCCNC1CCCCC[C@H]1O (stereo partly drawn)	> 100 µM	–	> 100 µM	–	–	–	> 100 µM	–	> 100 µM	–	> 100 µM	–	–	–	–	–	> 100 µM	> 100 µM	–	–
COC(=O)C(CC(=O)Nc1ccc(C)cc1)C(=O)C(=O)Nc1c(C(C)C)cccc1C(C)C (stereo not drawn)	> 100 µM	–	–	–	–	–	> 100 µM	–	> 100 µM	–	> 100 µM	–	–	–	–	–	> 100 µM	–	–	–
CCCCCCCCCCCCCCCC(=O)OCC(C[As](=O)(O)O)OC(=O)CCCCCCCCCCCCCCC (stereo not drawn)	> 100 µM	–	> 100 µM	–	> 100 µM	–	> 100 µM	–	> 100 µM	–	> 100 µM	–	> 100 µM	–	–	–	> 100 µM	> 100 µM	–	–
O=C1c2cccnc2-c2nc(-c3ccc(Cl)cc3)cc3c2c1nc1ccccc13	> 100 µM	41 µM	> 100 µM	29 µM	> 100 µM	–	–	–	–	76 µM	> 100 µM	47 µM	> 100 µM	75.4 µM	> 100 µM	28.4 µM	> 100 µM	> 100 µM	> 100 µM	7.38 µM
CN(Cc1ccccc1)C(=O)c1ccccc1C(=O)O	> 100 µM	–	> 100 µM	–	–	–	> 100 µM	–	–	–	–	–	–	–	–	–	> 100 µM	> 100 µM	–	–
c1cnn(CN(Cn2cccn2)Cn2cccn2)c1	–	–	> 100 µM	–	–	–	> 100 µM	–	> 100 µM	–	> 100 µM	–	–	–	–	–	> 100 µM	> 100 µM	–	–
